# Measured values taken from ChEMBL document CHEMBL1201862, “PubChem BioAssay data set” (2004).
#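 Step 1: Grow cells in 96-well plates. Step 2: Expose to compound for 48 hours at 5 concentrations. Step 3: Interpolate endpoints linearly; if unreached, use highest concentration. GI50 is the concentration that inhibits growth by half.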 Activity calls are given as the source filed them. No stated cut-off is given here; in the data, active = GI50 up to about 1.1 µM and inactive = higher.
# Columns and labels:
# Test in all cases: NCI-60 cell line screen, 48 h
# NCI-H226 = test system: NCI-H226
# SW-620 = test system: SW-620
# SF-539 = test system: SF-539
# TK-10 = test system: TK-10
# HCT-116 = test system: HCT-116
# MOLT-4 = test system: MOLT-4
# SK-OV-3 = test system: SK-OV-3
# SR = test system: SR
# T47D = test system: T47D
# A498 = test system: A498
# SF-268 = test system: SF-268
# BT-549 = test system: BT-549
# Malme-3M = test system: Malme-3M
# DU-145 = test system: DU-145
# UACC-62 = test system: UACC-62
# U-251 = test system: U-251
# ACHN = test system: ACHN
# LOX IMVI = test system: LOX IMVI
# SN12C = test system: SN12C
# COLO 205 = test system: COLO 205
# HCT-15 = test system: HCT-15
# UO-31 = test system: UO-31
# HL-60 = test system: HL-60
# NCI-H460 = test system: NCI-H460
# RXF 393 = test system: RXF 393
# KM12 = test system: KM12
# K562 = test system: K562
# OVCAR-3 = test system: OVCAR-3
# RPMI-8226 = test system: RPMI-8226
# MCF7 = test system: MCF7
# SK-MEL-2 = test system: SK-MEL-2
# SNB-19 = test system: SNB-19
# Hs-578T = test system: Hs-578T
# OVCAR-8 = test system: OVCAR-8
# SF-295 = test system: SF-295
# NCI-H522 = test system: NCI-H522
# 786-0 = test system: 786-0
# HOP-62 = test system: HOP-62
# OVCAR-4 = test system: OVCAR-4
# MDA-MB-231 = test system: MDA-MB-231
# HT-29 = test system: HT-29
# EKVX = test system: EKVX
# UACC-257 = test system: UACC-257
# MDA-N = test system: MDA-N
# MDA-MB-435 = test system: MDA-MB-435
# PC-3 = test system: PC-3
# A549 = test system: A549
# M14 = test system: M14
# SK-MEL-5 = test system: SK-MEL-5
# CAKI-1 = test system: CAKI-1
# SK-MEL-28 = test system: SK-MEL-28
# OVCAR-5 = test system: OVCAR-5
# IGROV-1 = test system: IGROV-1
# HOP-92 = test system: HOP-92
# NCI-H23 = test system: NCI-H23
# NCI/ADR-RES = test system: NCI/ADR-RES
# HCC 2998 = test system: HCC 2998
# SNB-75 = test system: SNB-75
# CCRF-CEM = test system: CCRF-CEM
smiles,measurement,setting,value
O=C(CSc1nc2ccccc2s1)c1sc2sc3ccccc3[n+]2c1[O-],GI50,NCI-H226,> 100 µM (inactive)
same,GI50,SW-620,> 100 µM (inactive)
same,GI50,SF-539,> 100 µM (inactive)
same,GI50,TK-10,> 100 µM (inactive)
same,GI50,HCT-116,> 100 µM (inactive)
same,GI50,MOLT-4,> 100 µM (inactive)
same,GI50,SK-OV-3,> 100 µM (inactive)
same,GI50,SR,> 100 µM (inactive)
same,GI50,T47D,> 100 µM (inactive)
same,GI50,A498,> 100 µM (inactive)
same,GI50,SF-268,> 100 µM (inactive)
same,GI50,BT-549,> 100 µM (inactive)
same,GI50,Malme-3M,> 100 µM (inactive)
same,GI50,DU-145,> 100 µM (inactive)
same,GI50,UACC-62,> 100 µM (inactive)
same,GI50,U-251,> 100 µM (inactive)
same,GI50,ACHN,> 100 µM (inactive)
same,GI50,LOX IMVI,> 100 µM (inactive)
same,GI50,SN12C,> 100 µM (inactive)
same,GI50,COLO 205,> 100 µM (inactive)
same,GI50,HCT-15,> 100 µM
same,GI50,UO-31,> 100 µM (inactive)
same,GI50,HL-60,> 100 µM (inactive)
same,GI50,NCI-H460,> 100 µM (inactive)
same,GI50,RXF 393,> 100 µM (inactive)
same,GI50,KM12,> 100 µM (inactive)
same,GI50,K562,> 100 µM (inactive)
same,GI50,OVCAR-3,> 100 µM (inactive)
same,GI50,RPMI-8226,> 100 µM (inactive)
same,GI50,MCF7,> 100 µM (inactive)
same,GI50,SK-MEL-2,> 100 µM (inactive)
same,GI50,SNB-19,> 100 µM (inactive)
same,GI50,Hs-578T,> 100 µM (inactive)
same,GI50,OVCAR-8,> 100 µM (inactive)
same,GI50,SF-295,> 100 µM (inactive)
same,GI50,NCI-H522,> 100 µM (inactive)
same,GI50,786-0,> 100 µM (inactive)
same,GI50,HOP-62,> 100 µM (inactive)
same,GI50,OVCAR-4,> 100 µM (inactive)
same,GI50,MDA-MB-231,26.9 µM (inactive)
same,GI50,HT-29,> 100 µM (inactive)
same,GI50,EKVX,> 100 µM (inactive)
same,GI50,UACC-257,> 100 µM (inactive)
same,GI50,MDA-N,> 100 µM (inactive)
same,GI50,MDA-MB-435,> 100 µM (inactive)
same,GI50,PC-3,> 100 µM (inactive)
same,GI50,A549,> 100 µM (inactive)
same,GI50,M14,> 100 µM (inactive)
same,GI50,SK-MEL-5,> 100 µM (inactive)
same,GI50,CAKI-1,> 100 µM (inactive)
same,GI50,SK-MEL-28,> 100 µM (inactive)
same,GI50,OVCAR-5,> 100 µM (inactive)
same,GI50,IGROV-1,> 100 µM (inactive)
same,GI50,HOP-92,> 100 µM (inactive)
same,GI50,NCI-H23,> 100 µM (inactive)
same,GI50,NCI/ADR-RES,> 100 µM (inactive)
O=C1OC(c2ccc(O)c(Cl)c2)(c2ccc(O)c(Cl)c2)c2ccc(Br)c3cccc1c23.O=C1OC(c2ccc(O)c(Cl)c2)(c2ccc(O)c(Cl)c2)c2cccc3c(Br)ccc1c23,GI50,NCI-H226,17.7 µM (inactive)
same,GI50,SW-620,23.9 µM (inactive)
same,GI50,SF-539,18.2 µM (inactive)
same,GI50,TK-10,17.1 µM (inactive)
same,GI50,HCC 2998,19.3 µM (inactive)
same,GI50,HCT-116,19.3 µM (inactive)
same,GI50,SNB-75,22.5 µM (inactive)
same,GI50,MOLT-4,16.3 µM (inactive)
same,GI50,SK-OV-3,17.2 µM (inactive)
same,GI50,SR,21.2 µM (inactive)
same,GI50,T47D,2.9 µM (inactive)
same,GI50,A498,18.7 µM (inactive)
same,GI50,SF-268,14.2 µM (inactive)
same,GI50,BT-549,21.5 µM (inactive)
same,GI50,Malme-3M,18.9 µM (inactive)
same,GI50,DU-145,23.7 µM (inactive)
same,GI50,UACC-62,12.4 µM (inactive)
same,GI50,U-251,20.1 µM (inactive)
same,GI50,LOX IMVI,20 µM (inactive)
same,GI50,SN12C,15 µM (inactive)
same,GI50,COLO 205,7.05 µM (inactive)
same,GI50,HCT-15,24.8 µM
same,GI50,UO-31,19.4 µM (inactive)
same,GI50,NCI-H460,16.4 µM (inactive)
same,GI50,RXF 393,17.3 µM (inactive)
same,GI50,KM12,24.1 µM (inactive)
same,GI50,K562,22.7 µM (inactive)
same,GI50,OVCAR-3,5.82 µM (inactive)
same,GI50,RPMI-8226,16.9 µM (inactive)
same,GI50,MCF7,15.2 µM (inactive)
same,GI50,SK-MEL-2,19.6 µM (inactive)
same,GI50,SNB-19,23.1 µM (inactive)
same,GI50,Hs-578T,29.3 µM (inactive)
same,GI50,OVCAR-8,27.8 µM (inactive)
same,GI50,CCRF-CEM,16.9 µM (inactive)
same,GI50,SF-295,18.3 µM (inactive)
same,GI50,786-0,19 µM (inactive)
same,GI50,HOP-62,21.5 µM (inactive)
same,GI50,OVCAR-4,2.67 µM (inactive)
same,GI50,MDA-MB-231,14.2 µM (inactive)
same,GI50,HT-29,11.5 µM (inactive)
same,GI50,EKVX,14 µM (inactive)
same,GI50,UACC-257,19.5 µM (inactive)
same,GI50,MDA-N,21 µM (inactive)
same,GI50,MDA-MB-435,18 µM (inactive)
same,GI50,PC-3,14.3 µM (inactive)
same,GI50,A549,18.8 µM (inactive)
same,GI50,M14,28.8 µM (inactive)
same,GI50,SK-MEL-5,17.5 µM (inactive)
same,GI50,CAKI-1,14.1 µM (inactive)
same,GI50,SK-MEL-28,20.9 µM (inactive)
same,GI50,OVCAR-5,20.7 µM (inactive)
same,GI50,IGROV-1,18.9 µM (inactive)
same,GI50,HOP-92,9.53 µM (inactive)
same,GI50,NCI-H23,16.7 µM (inactive)
same,GI50,NCI/ADR-RES,16.6 µM (inactive)
CCCCCCCCCCCCCCCCCCNC(=S)NC=C1C(=O)c2ccccc2C1=O,GI50,NCI-H226,8.32 µM (inactive)
same,GI50,SW-620,11.1 µM (inactive)
same,GI50,SF-539,18.3 µM (inactive)
same,GI50,TK-10,16.6 µM (inactive)
same,GI50,HCC 2998,2.13 µM (inactive)
same,GI50,HCT-116,4.08 µM (inactive)
same,GI50,MOLT-4,4.03 µM (inactive)
same,GI50,SK-OV-3,16 µM (inactive)
same,GI50,SR,2.75 µM (inactive)
same,GI50,T47D,15.8 µM (inactive)
same,GI50,A498,19.2 µM (inactive)
same,GI50,SF-268,5.62 µM (inactive)
same,GI50,BT-549,15.7 µM (inactive)
same,GI50,Malme-3M,14.7 µM (inactive)
same,GI50,DU-145,6.12 µM (inactive)
same,GI50,U-251,4.73 µM (inactive)
same,GI50,ACHN,10.9 µM (inactive)
same,GI50,LOX IMVI,3.9 µM (inactive)
same,GI50,SN12C,16 µM (inactive)
same,GI50,COLO 205,15.7 µM (inactive)
same,GI50,HCT-15,10.2 µM
same,GI50,UO-31,10.3 µM (inactive)
same,GI50,HL-60,3.87 µM (inactive)
same,GI50,NCI-H460,12.1 µM (inactive)
same,GI50,KM12,10.7 µM (inactive)
same,GI50,OVCAR-3,13.8 µM (inactive)
same,GI50,RPMI-8226,14.2 µM (inactive)
same,GI50,MCF7,12 µM (inactive)
same,GI50,SNB-19,17.3 µM (inactive)
same,GI50,Hs-578T,16.3 µM (inactive)
same,GI50,OVCAR-8,13.2 µM (inactive)
same,GI50,CCRF-CEM,5.02 µM (inactive)
same,GI50,SF-295,13.6 µM (inactive)
same,GI50,786-0,9.12 µM (inactive)
same,GI50,HOP-62,9.86 µM (inactive)
same,GI50,MDA-MB-231,10.9 µM (inactive)
same,GI50,HT-29,11.5 µM (inactive)
same,GI50,EKVX,13 µM (inactive)
same,GI50,UACC-257,17.9 µM (inactive)
same,GI50,MDA-N,16 µM (inactive)
same,GI50,MDA-MB-435,15.9 µM (inactive)
same,GI50,PC-3,3.83 µM (inactive)
same,GI50,A549,13.2 µM (inactive)
same,GI50,M14,10.3 µM (inactive)
same,GI50,SK-MEL-5,18.2 µM (inactive)
same,GI50,CAKI-1,15.5 µM (inactive)
same,GI50,SK-MEL-28,16.9 µM (inactive)
same,GI50,OVCAR-5,13.4 µM (inactive)
same,GI50,IGROV-1,1.4 µM (inactive)
same,GI50,HOP-92,3 µM (inactive)
same,GI50,NCI-H23,15.6 µM (inactive)
same,GI50,NCI/ADR-RES,14.2 µM (inactive)
